# From PubChem BioAssay (NCI)
# Where “and” joins values, the source holds several entries; their conditions need not be identical. Identical values can stand only once.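 Five concentrations, 48 hours, 96-well plates. At the GI50, growth is halved. TGI: concentration producing complete growth inhibition.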
# Assays:
# Assay in all cases: NCI anticancer screen, dose series, 48 h
# UACC-257 melanoma = test system: UACC-257 melanoma
# HCT-15 colon = test system: HCT-15 colon
# IGROV1 ovarian = test system: IGROV1 ovarian
# UACC-62 melanoma = test system: UACC-62 melanoma
# OVCAR-4 ovarian = test system: OVCAR-4 ovarian
# A549 NSCLC = test system: A549 NSCLC
# 786-0 renal = test system: 786-0 renal
# SK-MEL-2 melanoma = test system: SK-MEL-2 melanoma
# SR leukemia = test system: SR leukemia
# NCI/ADR-RES ovarian = test system: NCI/ADR-RES ovarian
Compound,TGI (UACC-257 melanoma),TGI (HCT-15 colon),TGI (IGROV1 ovarian),TGI (UACC-62 melanoma),TGI (OVCAR-4 ovarian),TGI (A549 NSCLC),GI50 (786-0 renal),TGI (SK-MEL-2 melanoma),GI50 (SR leukemia),GI50 (NCI/ADR-RES ovarian),TGI (786-0 renal),TGI (SR leukemia),TGI (NCI/ADR-RES ovarian),GI50 (HCT-15 colon),GI50 (IGROV1 ovarian),GI50 (UACC-62 melanoma),GI50 (OVCAR-4 ovarian),GI50 (A549 NSCLC),GI50 (SK-MEL-2 melanoma),GI50 (UACC-257 melanoma)
COc1cccc2c1C(=N)c1c(O)c3c(c(O)c1C2=O)C[C@@](O)(C(C)=O)C[C@@H]3OC1CC(N)C(O)C(C)O1 (stereo partly drawn),5.01 µM and 12.1 µM and 6.67 µM,28 µM and 32.8 µM,6.39 µM and 9.25 µM,1.61 µM and 1.9 µM and 2.61 µM,7.58 µM and 7.84 µM and 8 µM,0.926 µM and 1.46 µM and 1.01 µM,0.0766 µM,4.6 µM and 6.27 µM and 1.23 µM,0.0196 µM,0.466 µM,,,,,,,,,,
Cn1c(N)c(N=Nc2ccc(S(N)(=O)=O)cc2)c(=O)n(C)c1=O,> 100 µM,> 100 µM,> 100 µM,> 100 µM,> 100 µM,> 100 µM,,> 100 µM,,,> 100 µM,> 100 µM,> 100 µM,,,,,,,
COc1cc(C2C3=C(COC3=O)N(CCO)c3cc4c(cc32)CCC4)cc(OC)c1OC (stereo not drawn),> 32.5 µM,> 32.5 µM,0.232 µM,> 32.5 µM,> 20.9 µM,> 32.5 µM,0.119 µM,> 9.09 µM,0.0692 µM,0.709 µM,,> 32.5 µM,4.45 µM,0.199 µM,0.0732 µM,0.0749 µM,0.14 µM,0.13 µM,0.146 µM,
COc1ccc(-c2nccn2-c2cc(OC)c(OC)c(OC)c2)cc1,> 100 µM,> 100 µM,> 100 µM,24.1 µM,> 100 µM,> 100 µM,13.6 µM,> 100 µM,> 100 µM,1.17 µM,> 100 µM,> 100 µM,22.2 µM,1.16 µM,1.79 µM,0.675 µM,15.3 µM,4.94 µM,36.1 µM,73.1 µM
CCN(CC)CCC(CNc1c2ccc(Cl)cc2nc2ccc(OC)cc12)c1ccccc1 (stereo not drawn),3.63 µM,4.33 µM,5.11 µM,3.06 µM,4.26 µM,3.49 µM,1.38 µM,3.31 µM,0.323 µM,1.28 µM,3.11 µM,1.18 µM,5.12 µM,0.902 µM,1.21 µM,1.58 µM,1.64 µM,1.51 µM,1.76 µM,2.01 µM
Cn1cnc2nc(Cl)nc(Cl)c21,24.8 µM,20.7 µM,37.7 µM,19.7 µM,17.6 µM,> 100 µM,1.01 µM,10.2 µM,0.599 µM,2.76 µM,> 100 µM,28.7 µM,13 µM,2.58 µM,2.47 µM,1.79 µM,4.7 µM,3.68 µM,2.7 µM,7.84 µM
C=CC(=O)N1CC[C@@H](Oc2nc(Nc3ccc(N4CCC(N5CCN(C)CC5)CC4)cc3)c(C(N)=O)nc2CC)C1,> 100 µM,> 100 µM,> 100 µM,> 100 µM,> 100 µM,> 100 µM,> 100 µM,> 100 µM,> 100 µM,> 100 µM,> 100 µM,> 100 µM,> 100 µM,> 100 µM,> 100 µM,> 100 µM,> 100 µM,> 100 µM,> 100 µM,> 100 µM
